Values of other authors, collected in patent publication US10780172B2, “Docetaxel and human serum albumin complexes” (Zhuhai Beihai Biotech Co., Ltd., priority 2015, dated 2020).
“Also recorded” adds a separate entry of the source.

## CC(=O)O[C@@]12CO[C@@H]1C[C@H](O)[C@@]1(C)C(=O)[C@H](O)C3=C(C)[C@@H](OC(=O)[C@H](O)[C@@H](NC(=O)OC(C)(C)C)c4ccccc4)C[C@@](O)([C@@H](OC(=O)c4ccccc4)[C@H]21)C3(C)C [Docetaxel]
Plasma proteins; in vitro studies, mainly to al-acid glycoprotein, albumin, and lipoproteins
  protein bound: about 94%
Plasma proteins; three cancer patients
  in vitro binding to plasma proteins: approximately 97%
other
  water solubility: practically insoluble in water; also recorded: very poor water solubility
microtubule
  potency relative to paclitaxel in inhibiting microtubule depolymerization: about twice as potent as paclitaxel
